{"source": "patent US4563463A", "about": "“2-Oxo-1,3-oxazolo[4,5-h] quinolines useful as anti-allergy agents” (priority 1984, dated 1986)", "key": {"[1]": {"system": "passively sensitized Rat Mast Cells", "test": "Rat Mast Cell (RMC) test: inhibition of histamine release from passively sensitized Rat Mast Cells", "type": "cell-based", "conditions": "for RMC % inh.: at 50 μm (number in parentheses); for IC50: Mast cell, histamine release, passively sensitized rat mast cells, read-out: I50 value in the RMC test", "text": "In addition, the compounds of this invention have potent activity as inhibitors of histamine release from passively sensitized Rat Mast Cells according to the porcedure described by E. Kusner, et al., Journal of Pharmacology and Experimental Therapeutics, 184, 41 (1973)."}, "[2]": {"system": "Rat Passive Cutaneous Anaphylaxis", "test": "Rat Passive Cutaneous Anaphylaxis (PCA) Screen: inhibition of wheal formation", "type": "in vivo", "conditions": "for inhibition of wheal formation in the PCA test: 10 mg/kg, intraperitoneal; for ED50: Rattus norvegicus", "text": "The compounds of this invention have potent activity in inhibiting the formation of a wheel when screened according to the Rat Passive Cutaneous Anaphylaxis (PCA) Screen as described by I. Mota, Life Sciences, 7, 465 (1963) and Z. Ovary, et al. Proceedings of Society of Experimental Biology and Medicine, 81, 584 (1952)."}, "[3]": {"conditions": "PO, 125 mg/kg (number in parentheses)"}, "[4]": {"conditions": "PO, 25 mg/kg (number in parentheses)"}}, "note": "Read-outs that look alike come from different tables or passages of the source."}
{"smiles": "CC(=O)n1c(=O)oc2c3ncccc3ccc21", "note": "[Example 20, 3-Acetyl-2-oxo-3H-oxazolo[4,5-h]quinoline]", "values": [{"measurement": "RMC % inh.", "setting": "[1]", "result": 18, "unit": "%"}, {"measurement": "PCA % inh. PO", "setting": "[2]; [3]", "result": 14, "unit": "%"}]}
{"smiles": "O=C([O-])c1nc2cc(Cl)c3cccnc3c2o1.[Na+]", "note": "[Example 14, 5-chloro-1,3-oxazolo-[4,5-h]quinoline-2-carboxylate, sodium salt]", "values": [{"measurement": "IC50", "setting": "[1]", "result": 100, "unit": "nM"}, {"measurement": "inhibition of wheal formation in the PCA test", "setting": "[2]", "result": 51, "unit": "%"}]}
{"smiles": "Cn1c(=O)oc2c3ncccc3c(Cl)cc21", "note": "[Example 25, 5-Chloro-3-methyl-2-oxo-3H-oxazolo[4,5-h]quinoline]", "values": [{"measurement": "RMC % inh.", "setting": "[1]", "result": 0, "unit": "%"}, {"measurement": "PCA % inh. PO", "setting": "[2]; [3]", "result": 51, "unit": "%"}]}
{"smiles": "CCOC(=O)c1nc2cc(Cl)c3cccnc3c2o1", "note": "[Example 4, 2-carboethoxy-5-chloro-1,3-oxazolo-[4,5-h]quinoline]", "values": [{"measurement": "IC50", "setting": "[1]", "result": 100, "unit": "nM"}, {"measurement": "inhibition of wheal formation in the PCA test", "setting": "[2]", "result": 59, "unit": "%"}]}
{"smiles": "CC(C(=O)n1c(=O)oc2c3ncccc3c(Cl)cc21)c1ccccc1", "note": "(centres unmarked) [Example 23]", "values": [{"measurement": "RMC % inh.", "setting": "[1]", "result": 16, "unit": "%"}, {"measurement": "PCA % inh. IP", "setting": "[2]; IP, 125 mg/kg (number in parentheses)", "result": 34, "unit": "%"}]}
{"smiles": "O=c1[nH]c2cc(Cl)c3cccnc3c2o1", "note": "[Example 19]", "values": [{"measurement": "PCA % inh. PO", "setting": "[2]; [4]", "result": 0, "unit": "%"}]}
{"smiles": "COc1cccc(C(=O)n2c(=O)oc3c4ncccc4c(Cl)cc32)c1", "note": "[Example 22]", "values": [{"measurement": "PCA % inh. PO", "setting": "[2]; PO, 100 mg/kg (number in parentheses)", "result": 43, "unit": "%"}]}
{"smiles": "CN(C)C(=O)n1c(=O)oc2c3ncccc3c(Cl)cc21", "note": "[Example 24]", "values": [{"measurement": "RMC % inh.", "setting": "[1]", "result": 18, "unit": "%"}, {"measurement": "PCA % inh. PO", "setting": "[2]; [4]", "result": 0, "unit": "%"}]}
{"smiles": "COC(=O)c1nc2cc(Cl)c3cccnc3c2o1", "note": "[Example 1C, 2-Carbomethoxy-5-chloro-1,3-oxazolo-[4,5-h]quinoline]", "values": [{"measurement": "IC50", "setting": "[1]", "result": 300, "unit": "nM"}, {"measurement": "ED50", "setting": "[2]; ip, intraperitoneal route, read-out: E50 value in PCA test", "result": 0.5, "unit": "mg/kg"}, {"measurement": "ED50", "setting": "[2]; oral route, read-out: E50 value in PCA test", "result": 1, "unit": "mg/kg"}]}
{"smiles": "O=c1[nH]c2ccc3cccnc3c2o1", "note": "[Example 18, 2-Oxo-3H-oxazolo[4,5-h]quinoline]", "values": [{"measurement": "RMC % inh.", "setting": "[1]", "result": "< 30", "unit": "%"}, {"measurement": "ED50", "setting": "[2]; IP, Table I, read-out: PCA ED50 IP", "result": 10, "unit": "mg/kg"}, {"measurement": "ED50", "setting": "[2]; PO, Table I, read-out: PCA ED50 PO", "result": 4, "unit": "mg/kg"}]}
